Consider 17 compounds from PubChem BioAssay AID328 (DTP/NCI, 2004).

SMILES strings stand for the structures. Several values for one entry are separate records, joined by “and”; a condition that tells them apart may be missing. Equal values may be shown once. Toxic doses and inconclusive results are not listed.

In the test the test system is BDF1 mice, P388 leukemia ip, median survival T/C. Description: NCI In Vivo Anticancer Drug Screen. Data for tumor model P388 Leukemia (intraperitoneal) in B6D2F1 (BDF1) mice. To be noted: endpoint: median survival time, higher = longer survival. Summed up:
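Read-out is survival of treated animals expressed relative to the vehicle group, as a T/C ratio.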

The mark [1] stands for this setting: dose: 100.0 mg/kg/injection, schedule: Q04DX003 (ip), vehicle: saline.
Setting [2] is: dose: 200.0 mg/kg/injection, schedule: Q04DX003 (ip), vehicle: saline.
Where [3] appears, read: dose: 100.0 mg/kg/injection, schedule: Q04DX003 (ip), vehicle: saline with Tween-80.
Where [4] appears, read: dose: 400.0 mg/kg/injection, schedule: Q04DX003 (ip), vehicle: saline with Tween-80.
The mark [5] stands for this setting: dose: 50.0 mg/kg/injection, schedule: Q01DX009 (ip), vehicle: saline with Tween-80.
The mark [6] stands for this setting: dose: 100.0 mg/kg/injection, schedule: Q01DX009 (ip), vehicle: saline with Tween-80.
Where [7] appears, read: dose: 200.0 mg/kg/injection, schedule: Q01DX009 (ip), vehicle: saline with Tween-80.
[8] abbreviates: dose: 200.0 mg/kg/injection, schedule: Q04DX003 (ip), vehicle: saline with Tween-80.

On to `CC1=C[S+](c2ccccc2)c2cccc3cc4ccccc4c1c23` (centres undefined), for which the T/C reads like this: (dose: 0.4 mg/kg/injection, schedule: Q01DX009 (ip), vehicle: saline with Tween-80) 154 % of control; (dose: 0.6 mg/kg/injection, schedule: Q01DX009 (ip), vehicle: saline with Tween-80) 165 % of control; (dose: 0.9 mg/kg/injection, schedule: Q01DX009 (ip), vehicle: saline with Tween-80) 154 % of control and 155 % of control; (dose: 2.5 mg/kg/injection, schedule: Q01DX009 (ip), vehicle: saline with Tween-80) 116 % of control.
As to `CC1(C)C2C=CC1C(CO)(CO)C2` (centres undefined), the T/C by setting is: (dose: 100.0 mg/kg/injection, schedule: Q01DX001 (ip), vehicle: saline) 100 % of control; under setting [1], 100 % of control; (dose: 200.0 mg/kg/injection, schedule: Q01DX001 (ip), vehicle: saline) 104 % of control; under setting [2], 91 % of control; (dose: 400.0 mg/kg/injection, schedule: Q01DX001 (ip), vehicle: saline) 108 % of control; (dose: 400.0 mg/kg/injection, schedule: Q04DX003 (ip), vehicle: saline) 100 % of control.
For `O=C(COc1ccc([N+](=O)[O-])cc1)Nc1cccnc1`, the T/C under setting [3] was 100 % of control and the T/C under setting [4] is 100 % of control.
On to `CCOC(=O)/C=C/C(C(=O)OCC)C(=O)OCC`, for which the T/C (dose: 75.0 mg/kg/injection, schedule: Q04DX003 (ip), vehicle: saline with Tween-80) is 95 % of control and the T/C (dose: 150.0 mg/kg/injection, schedule: Q04DX003 (ip), vehicle: saline with Tween-80) is 120 % of control.
On to `CC1(C)N=C(N)N=C(N)N1c1ccc(OCC(=O)Nc2ccc(S(=O)(=O)F)cc2)c(Cl)c1`, for which the T/C runs as follows: (dose: 44.0 mg/kg/injection, schedule: Q04DX003 (ip), vehicle: saline) 113 % of control; (dose: 50.0 mg/kg/injection, schedule: Q01DX009 (ip), vehicle: saline) 190 % of control; (dose: 100.0 mg/kg/injection, schedule: Q01DX008 (ip), vehicle: saline) 195 % of control; (dose: 100.0 mg/kg/injection, schedule: Q01DX009 (ip), vehicle: saline) 205 % of control; (dose: 132.0 mg/kg/injection, schedule: Q04DX003 (ip), vehicle: saline) 166 % of control and 200 % of control; (dose: 200.0 mg/kg/injection, schedule: Q01DX008 (ip), vehicle: saline) 200 % of control. For the same compound, the T/C under setting [2] is 161 % of control and 215 % of control; the T/C (dose: 300.0 mg/kg/injection, schedule: Q04DX003 (ip), vehicle: saline) was 245 % of control and 152 % of control.
Consider `O=C(CCNC(=O)OCc1ccccc1)NC(CSCc1ccccc1)C(=O)O` (centres undefined), for which the T/C reads like this: (dose: 12.5 mg/kg/injection, schedule: Q04DX003 (ip), vehicle: water) 112 % of control; (dose: 25.0 mg/kg/injection, schedule: Q04DX003 (ip), vehicle: water) 118 % of control; (dose: 50.0 mg/kg/injection, schedule: Q04DX003 (ip), vehicle: water) 114 % of control; (dose: 100.0 mg/kg/injection, schedule: Q04DX003 (ip), vehicle: water) 105 % of control; (dose: 200.0 mg/kg/injection, schedule: Q04DX003 (ip), vehicle: water) 103 % of control.
In the case of `O=C1Nc2ccccc2SC1C1SC(=S)N(Cc2ccccc2)C1=O` (centres undefined), the T/C is, setting by setting: under setting [5], 102 % of control; under setting [6], 86 % of control; under setting [7], 86 % of control.
As to `CCCCNC(C)(C)C(=O)c1ccco1`, the T/C is 86 % of control under setting [3] and 100 % of control under setting [8].
Turning to `Cn1c([N+](=O)[O-])cnc1CSc1nc(-c2ccccc2)no1`, the T/C runs as follows: under setting [3], 93 % of control; under setting [8], 117 % of control; under setting [4], 93 % of control.
Turning to `CCOP(=O)(N1CC1(C)C)N1CC1(C)C` (centres undefined), the T/C reads like this: (dose: 50.0 mg/kg/injection, schedule: Q04DX003 (ip), vehicle: alcohol) 110 % of control; (dose: 66.0 mg/kg/injection, schedule: Q04DX003 (ip), vehicle: saline) 280 % of control and 172 % of control; under setting [1], 272 % of control and 300 % of control; (dose: 150.0 mg/kg/injection, schedule: Q04DX003 (ip), vehicle: saline) 272 % of control and 95 % of control.
With `O=c1cnn(C2OC(CO)C(O)C2O)c(=O)[nH]1` (centres undefined), the T/C reads like this: (dose: 12.5 mg/kg/injection, schedule: Q01DX009 (ip), vehicle: Klucel (hydroxypropylcellulose) (HPC)) 108 % of control and 115 % of control; (dose: 25.0 mg/kg/injection, schedule: Q01DX009 (ip), vehicle: Klucel (hydroxypropylcellulose) (HPC)) 123 % of control; (dose: 75.0 mg/kg/injection, schedule: Q01DX009 (ip), vehicle: Klucel (hydroxypropylcellulose) (HPC)) 112 % of control; (dose: 150.0 mg/kg/injection, schedule: Q01DX009 (ip), vehicle: Klucel (hydroxypropylcellulose) (HPC)) 106 % of control; (dose: 180.0 mg/kg/injection, schedule: Q01DX009 (ip), vehicle: saline) 111 % of control; (dose: 200.0 mg/kg/injection, schedule: Q01DX010 (ip), vehicle: saline) 116 % of control and 122 % of control. For the same compound, the T/C by setting is: (dose: 268.0 mg/kg/injection, schedule: Q01DX009 (ip), vehicle: saline) 111 % of control; (dose: 300.0 mg/kg/injection, schedule: Q01DX009 (ip), vehicle: Klucel (hydroxypropylcellulose) (HPC)) 106 % of control; (dose: 400.0 mg/kg/injection, schedule: Q01DX009 (ip), vehicle: saline) 117 % of control; (dose: 400.0 mg/kg/injection, schedule: Q01DX010 (ip), vehicle: saline) 154 % of control; (dose: 600.0 mg/kg/injection, schedule: Q01DX009 (ip), vehicle: saline) 109 % of control; (dose: 1200.0 mg/kg/injection, schedule: Q01DX009 (ip), vehicle: Klucel (hydroxypropylcellulose) (HPC)) 91 % of control. Besides, where the note is “dose: 1600.0 mg/kg/injection, schedule: Q01DX010 (ip), vehicle: saline”, the T/C is 100 % of control.
For `CCc1ccc2c(c1)N(CCCN(CCCl)CCCl)c1ccccc1S2`, the T/C is, setting by setting: (dose: 1.56 mg/kg/injection, schedule: Q04DX003 (ip), vehicle: saline with Tween-80) 102 % of control and 104 % of control; (dose: 3.12 mg/kg/injection, schedule: Q04DX003 (ip), vehicle: saline with Tween-80) 93 % of control and 104 % of control; (dose: 6.25 mg/kg/injection, schedule: Q04DX003 (ip), vehicle: saline with Tween-80) 118 % of control; (dose: 12.5 mg/kg/injection, schedule: Q04DX003 (ip), vehicle: saline with Tween-80) 163 % of control.
As to `O=C(O)c1ccccc1O.O=C(O)c1ccccc1O.[O]=[V]`, the T/C (dose: 8.0 mg/kg/injection, schedule: Q01DX010 (ip), vehicle: carboxymethylcellulose (CMC)) was 90 % of control and the T/C (dose: 16.0 mg/kg/injection, schedule: Q01DX010 (ip), vehicle: carboxymethylcellulose (CMC)) is 100 % of control.
Regarding `CS(=O)(=O)CC(O)(c1ccccc1)c1ccncc1` (centres undefined), the T/C by setting is: under setting [5], 96 % of control; under setting [6], 90 % of control; under setting [7], 98 % of control.
Turning to `C=CCNC(=S)Nc1ccc(C)cc1`, the T/C was 112 % of control (dose: 50.0 mg/kg/injection, schedule: Q04DX003 (ip), vehicle: Klucel (hydroxypropylcellulose) (HPC)); 104 % of control (dose: 100.0 mg/kg/injection, schedule: Q04DX003 (ip), vehicle: Klucel (hydroxypropylcellulose) (HPC)); 91 % of control (dose: 200.0 mg/kg/injection, schedule: Q04DX003 (ip), vehicle: Klucel (hydroxypropylcellulose) (HPC)).
Take `CC(=O)Nc1cc(C)cc(CO)c1C`: the T/C (dose: 25.0 mg/kg/injection, schedule: Q04DX003 (ip), vehicle: saline with Tween-80) was 86 % of control; the T/C (dose: 50.0 mg/kg/injection, schedule: Q04DX003 (ip), vehicle: saline with Tween-80) is 96 % of control; the T/C under setting [3] was 93 % of control; the T/C under setting [8] is 88 % of control.
Regarding `CC1=CC(=NN=c2cc(C)n([O-])c(C)c2)C=C(C)[N+]1=O`, where the note is “dose: 12.5 mg/kg/injection, schedule: Q01DX010 (ip), vehicle: saline”, the T/C was 91 % of control and 104 % of control and 114 % of control.
